# How the values were obtained:
# [1] = test system: mouse peritoneum macrophages; test: LPS-stimulated mouse peritoneal macrophages, cytokine analysis; format: cell-based
# Procedure: This example provides an […] study to determine the effect of DA on mouse peritoneum macrophages. Peritoneal exudates were obtained from Balb/c female mice by lavage 4 days after an intraperitoneal injection of 4 ml sterile 4% thioglycollate broth. After washing with RPMI 1640 medium, the cell suspensions were centrifuged at 800 g at 4° C. for 5 min. The red blood cells were eliminated by ACK buffer and the cells were washed and resuspended in RPMI 1640 supplemented with 10% inactivated FBS, 10 mM HEPES, 2 mM glutamine, and 100 U/ml penicillin-[…] streptomycin. The peritoneal macrophages were plated in 24 well tissue culture plate (2×10^5 cells/mL/well) at 37° C. in a 5% CO2 humidified atmosphere. Macrophages were precultured in serum-free RPMI 1640 medium for 24 h to reduce mitogenic effects. Macrophages were pretreated with various concentrations of DA for 1 h prior to LPS treatment and stimulated with LPS (100 ng/mL) for 24 h. Treatment groups were: Table 4 At 12 and 24 h time points of stimulation, ˜200 ul of supernatant were removed and stored (−80° C.) for cytokine analysis ([…]). Cytokines analyzed were—GM-CSF, IFNγ, IL-1a, IL-1β, IL-2, IL-4, IL-5, IL-6, IL-7, IL-10, IL-12 (p70), IL-13, IL-17A, KC/CXCL1, LIX, MCP-1, MIP-2, TNF-α,
# [2] = test system: DIO mice (C57BL/6NTac, high fat diet); test: body weight study in diet-induced obese (DIO) mice, 56 days; format: in vivo, mouse
# Procedure: This example provides results of a study of DA plus another compound (CQL) on body weight in diet-induced (DIO) mice. Adult C57BL/6NTac mice were fed with a high fat diet (60%). Vehicle group (N=15) were treated with distilled water by gavage BID, CQL (N=15) were treated at 50 mg/kg by gavage BID, and DA (N=15) at a dose of 92.4 mg/kg by gavage BID. The study period was for 56 days+2-3 days testing period afterward. […] Metabolic biomarkers were measured on days 28 and 56. Cytokine analysis on Days 28 and 56. Serum levels of GLP-1, GLP-2, and CCK at 1 h after dosing on Days 1 and 56, and at 2 h after dosing on Day 7 (dosing (>6 h fasting prior to dosing until after blood collection); and serum level of PPY on Day 56.
# [3] = DA 92.4 mg/kg gavage BID, compared to vehicle
# [4] = DA 92.4 mg/kg, CQL 50 mg/kg, gavage BID
compound,measurement,setting,value
"CC(=O)[O-].CC[N+](CC)(CC(=O)Nc1c(C)cccc1C)Cc1ccccc1 [DA, denatonium acetate]","IL-7, Significance @ 12 hour LPS incubation","[1]; DA 10 μM, P value",0.010
same,"IL-10, Significance @ 12 hour LPS incubation","[1]; DA 10 μM, P value",0.026
same,"IL-12 (p70), Significance @ 12 hour LPS incubation","[1]; DA 10 μM, P value",0.007
same,"IL-13, Significance @ 12 hour LPS incubation","[1]; DA 10 μM, P value",0.019
same,"IL-17A, Significance @ 12 hour LPS incubation","[1]; DA 10 μM, P value",0.024
same,"KC/CXCL1, Significance @ 12 hour LPS incubation","[1]; DA 10 μM, P value",no sig
same,"LIX, Significance @ 12 hour LPS incubation","[1]; DA 10 μM, P value",no sig
same,"MCP-1, Significance @ 12 hour LPS incubation","[1]; DA 10 μM, P value",no sig
same,"MIP-2, Significance @ 12 hour LPS incubation","[1]; DA 10 μM, P value",0.021
same,"TNF-α, Significance @ 12 hour LPS incubation","[1]; DA 10 μM, P value",0.024
same,"GM-CSF, Significance @ 24 hour LPS incubation",[1]; DA 100 μM,no sig
same,"IFNγ, Significance @ 24 hour LPS incubation",[1]; DA 100 μM,no sig
same,"IL-1α, Significance @ 24 hour LPS incubation",[1]; DA 100 μM,no sig
same,"IL-1β, Significance @ 24 hour LPS incubation",[1]; DA 100 μM,no sig
same,"IL-2, Significance @ 24 hour LPS incubation",[1]; DA 100 μM,no sig
same,"IL-4, Significance @ 24 hour LPS incubation",[1]; DA 100 μM,no sig
same,"IL-6, Significance @ 24 hour LPS incubation",[1]; DA 100 μM,no sig
same,"IL-7, Significance @ 24 hour LPS incubation",[1]; DA 100 μM,no sig
same,"IL-10, Significance @ 24 hour LPS incubation",[1]; DA 100 μM,no sig
same,"IL-12 (p70), Significance @ 24 hour LPS incubation",[1]; DA 100 μM,no sig
same,"IL-13, Significance @ 24 hour LPS incubation",[1]; DA 100 μM,no sig
same,"IL-17A, Significance @ 24 hour LPS incubation",[1]; DA 100 μM,no sig
same,"KC/CXCL1, Significance @ 24 hour LPS incubation",[1]; DA 100 μM,no sig
same,"LIX, Significance @ 24 hour LPS incubation",[1]; DA 100 μM,no sig
same,"MCP-1, Significance @ 24 hour LPS incubation",[1]; DA 100 μM,no sig
same,"MIP-2, Significance @ 24 hour LPS incubation",[1]; DA 100 μM,no sig
same,"TNF-α, Significance @ 24 hour LPS incubation",[1]; DA 100 μM,no sig
same,"GM-CSF, Significance @ 12 hour LPS incubation","[1]; DA 100 μM, P value",no sig
same,"IL-10, Significance @ 12 hour LPS incubation","[1]; DA 100 μM, P value",0.015
same,"IL-12 (p70), Significance @ 12 hour LPS incubation","[1]; DA 100 μM, P value",0.008
same,"IL-13, Significance @ 12 hour LPS incubation","[1]; DA 100 μM, P value",0.021
same,"IL-17A, Significance @ 12 hour LPS incubation","[1]; DA 100 μM, P value",0.042
same,"KC/CXCL1, Significance @ 12 hour LPS incubation","[1]; DA 100 μM, P value",0.022
same,"LIX, Significance @ 12 hour LPS incubation","[1]; DA 100 μM, P value",no sig
same,"MCP-1, Significance @ 12 hour LPS incubation","[1]; DA 100 μM, P value",no sig
same,"MIP-2, Significance @ 12 hour LPS incubation","[1]; DA 100 μM, P value",0.033
same,"TNF-α, Significance @ 12 hour LPS incubation","[1]; DA 100 μM, P value",0.033
same,serum glucose levels,[2]; DA 92.4 mg/kg gavage BID,did not show a significant effect
same,daily food intake at Day 14,[2]; [3],significantly reduced
same,serum CCK levels at Day 56,[2]; [3],significantly increased
same,serum GLP-1 levels at Days 7 and 56,[2]; [3],significantly increased
same,serum GLP-2 levels at Day 56,[2]; [3],significantly increased
same,serum PYY levels at Day 56,[2]; [3],significantly increased
same,serum insulin level at Day 28,[2]; [3],significantly reduced
same,body weight gain at day 57,"[2]; DA 92.4 mg/kg gavage BID, compared to vehicle and CQL",significantly reduced
same,serum LDL levels at days 28 and 56,"[2]; DA 92.4 mg/kg gavage BID, compared to vehicle, no significant difference",noticeable decrease
same,serum HbA1c level at Day 28,[2]; [4],significantly reduced
same,serum HbA1c level at Day 56,[2]; [4],considerably increased
same,daily water intake at Day 28,"[2]; DA 92.4 mg/kg, CQL 50 mg/kg, gavage BID, compared to vehicle",significantly increased
same,"serum Eotaxin, significance (p) of increase",[2]; day 28,0.031
same,"serum G-CSR, significance (p) of increase",[2]; day 28,0.063
same,"serum IL-6, significance (p) of increase",[2]; day 28,0.041
same,"serum IP-10, significance (p) of increase",[2]; day 28,0.013
same,"serum MIG, significance (p) of increase",[2]; day 28,no sig
same,"serum Eotaxin, significance (p) of increase",[2]; day 56,no sig
same,"serum G-CSR, significance (p) of increase",[2]; day 56,0.039
same,"serum IL-6, significance (p) of increase",[2]; day 56,no sig
same,"serum IP-10, significance (p) of increase",[2]; day 56,no sig
same,"serum MIG, significance (p) of increase",[2]; day 56,0.028
